Entries after “also recorded” stand apart in the source; their conditions may differ. Where a SMILES comes first, the peptide text is derived from it. The star is where a group is joined. Cbz = O=C(OCc1ccccc1)*

For one experiment, the system named is HPH. Nature of the experiment: 2-Oxoglutarate: HPH binding assay. Also on record: species or system human. To be noted: competitor 10 mM. How it is done:
Gel was washed four times with the indicated buffer. Analysis of HPH binding was measured by scintillation counting.

Experiment [1] has as its system labile intracellular iron pool. Nature of the experiment: Calcein fluorescence assay for cellular free iron. The class given is cell-based, human. To be noted: calcein loaded U251 cells. How it is done: The ability of 2-oxoacids to chelate the labile intracellular iron pool was measured using the calcein fluorescence assay as previously described. The iron chelators desferrioxamine and bipyridyl were used as positive controls.

For experiment [2], the system named is HIF-1α. Put plainly: HIF-1α decay after washout of inducer. The class given is cell-based, human. How it is done:
(§1) Human U87, U251, U251-HRE (20) and U373 glioma cells were cultured in Eagle's MEM medium (Mediatech). DU145 human prostate cancer cells and 022 human head and neck cancer cells were cultured in RPMI 1640 medium (Sigma). 22B Human head and neck cancer cells were cultured in high glucose DMEM (Gibco) containing 2 mM glutamine. C6 ODD-GFP rat glioma cells were cultured in high glucose DMEM with 1.5 mg/ml G418. All culture media were supplemented with 10% fetal bovine serum and 1% (v/v) penicillin/streptomycin. Rat C6 glioma cells were cultured in high glucose DMEM. For cell hypoxia treatment, the culture dishes were sealed in a modular incubator chamber, flushed with gas containing 1% O2, 5% CO2 and 94% N2 for 5 minutes, and incubated in this environment at 37° C. for indicated times.
(§2) Protein extraction, western blot analysis, and immunocytochemistry were performed as previously described. Mouse monoclonal anti-HIF-1α antibodies were 610958 (BD Biosciences), and NB100-123 (Novus). Mouse monoclonal anti-GFP antibody was 1814460 (Roche). Mouse monoclonal anti-β-actin antibody was ab6276-100 (Abcam). Dimethyloxalylglycine was D1070 (Frontier Scientific). All other chemicals were from Sigma. Antibodies recognizing HPH homologues were from Novus biologicals and the antisera recognizing […] of HIF-1α was kindly provided by R. Freeman.
To test this U251 cells was exposed to glucose-free Krebs buffer to either hypoxia (1% O2) or 2 mM pyruvate for four hours. Nuclear HIF-1α protein accumulation was induced by both treatments (FIG. 6A). […] HIF-1α immunoreactivity disappeared rapidly upon reoxygenation (return to 21% O2) of hypoxic cells as would be expected with the resumption of oxygen-dependent HIF-1α hydroxylation and proteolysis. […] To directly determine if the HPH activity in glioma cells was reversibly inactivated by pyruvate and oxaloacetate the ^35S-pVHL pulldown assay to measure HPH activity in extracts from cells treated for four hours with the 2-oxoacids was used. To capture the endogenous state of HPH activity, the cell extracts were first assayed without supplementation with exogenous reductants, ascorbate, or iron. […] The minimal HPH activity of extracts from pyruvate or oxaloacetate treated cells could also be restored by supplementation of the extracts with ascorbate or with exogenous ferrous iron (FeSO4) during the assay (FIG. 6D).

The subject of experiment [3] is HIF-1α. Put plainly: HIF-1α accumulation in 22B head and neck cancer cells. As to conditions: 22B cells, 100 μM each, last 30 minutes after 24 hours accumulation. It is filed as cell-based, human. Here is the method: as §1, §2
Experiment [4] has as its system HIF-1α. Nature of the experiment: Nuclear HIF-1α accumulation in human cancer cell lines (western blot). To be noted: for inhibition of HIF-1α accumulation, L- vs D-isomers and dimer: U87, four hours, glucose-free Krebs, 1 mM pyruvate or oxaloacetate, 250 μM (FIG. 3C); for HIF-1α accumulation induced by oxidant: U251 cells; for HIF-1α accumulation induced by oxidant / HIF-1α accumulation induced by metabolite: four hours; for HIF-1α accumulation induced by metabolite: substituted for glucose in Krebs buffer, normoxia; for dose inducing HIF-1α (doses as low as): culture times longer than 8 h; for threshold dose for inducing HIF-1α accumulation: four hours period of cell culture. The class given is cell-based. Here is the method:
as §1, with “DU145 human prostate cancer cells and 022 human head and neck cancer cells were cultured in RPMI 1640 medium (Sigma).” left out
Protein extraction, western blot analysis, and immunocytochemistry were performed as previously described. […] Mouse monoclonal anti-β-actin antibody was ab6276-100 (Abcam). Dimethyloxalylglycine was D1070 (Frontier Scientific). All other chemicals were from Sigma.
For orientation: Immunoblotting shows a protein as a band on a membrane.

Experiment [5] deals with HIF-1α. Put plainly: HIF-1α hydroxyproline detection in U251 whole cell extracts. To be noted: U251, four hours, antibody to hydroxylated ODD region. It is filed as cell-based, human. Here is the method:
as §2
Some reactive oxygen species can also induce HIF-1α. […] Next, attention was focused on HIF-1α proline hydroxylation as a target for 2-oxoacids.

A further experiment concerns HIF-1. Nature of the experiment: HIF-1 luciferase reporter assay in U251-HRE cells. As to conditions: 8 h. It is filed as cell-based, human.
Another experiment deals with ODD-GFP. Put plainly: Live cell assay for oxygen-dependent degradation, ODD-GFP transfected C6 glioma cells. It is filed as cell-based, rat. As to conditions: C6 cells in Krebs buffer, 24 hours. Here is the method: as §1
Next a live cell assay for oxygen-dependent HIF-1α degradation using C6 rat glioma cells that had been stably transfected with a vector encoding the HIF-1 cc ODD region fused to GFP (ODD-GFP) was performed. The ODD-GFP protein is hydroxylated and degraded in an oxygen dependent manner similar to HIF-1α. As with HIF-1α, a basal, as well as, hypoxia-inducible accumulation of ODD-GFP has been reported.

`O=C(O)CCC(=O)C(=O)O` [2-OG, 2-oxoglutarate]: the “displacement of iron dependent binding of 35S-HPHs to immobilized 2-OG” value (“displacement” for short) with HPH was “readily displaced”.
In the case of `CC(=O)N(O)CCCCCNC(=O)CCC(=O)N(O)CCCCCNC(=O)CCC(=O)N(O)CCCCCN` [DFO, desferrioxamine], in experiment [1], the intracellular calcein fluorescence entry is “increase in fluorescence”.
With `[Fe+3]` [Fe(III)], in the experiment with HIF-1α [2] (100 μM each), the “HIF-1α decay following induction with pyruvate or oxaloacetate, iron in wash” value is on record as “not Fe(III)”; the “decay of NO-induced HIF-1α with iron in wash” value is given as “not Fe(III)”; the “decay of accumulated HIF-1α after washing out DFO, iron added” value is recorded as “not Fe(III)”. In addition, the “accumulated (pyruvate-enhanced) HIF-1α after supplementation” value with HIF-1α [3] is given as “Fe(II)>Fe(III)”. Also, the “accumulated (pyruvate-enhanced) HIF-1α after supplementation” value with HIF-1α [3] (listed as ferric iron) was “diminished to a greater extent by ferrous iron than by ferric iron”.
For the compound `N[C@@H](CCC(=O)N[C@@H](CS)C(=O)NCC(=O)O)C(=O)O` [GSH, glutathione], in the experiment with HIF-1α [2] (U87 after pyruvate or oxaloacetate, 100 μM ascorbate, 5 mM GSH or MEM amino acid mixture), the “HIF-1α decay with agent added to the wash” value is listed as “HIF-1α decay was rapidly resumed”. Moreover, in the experiment on HIF-1α [4] (FIG. 3C, 1% O2 or 150 μM DFO), the “HIF-1α accumulation by hypoxia or the iron chelator DFO” value is “not by hypoxia or DFO”. In addition, the “inhibition of HIF-1α accumulation, L- vs D-isomers and dimer” value with HIF-1α [4] was “selectively inhibited”. Moreover, the “NO induced HIF-1α accumulation” value with HIF-1α [4] (U251, MEM, DETA-NO 300 μM, ascorbate 100 μM, Fe(II) 100 μM, GSH 5 mM) was “complete inhibition”.
`OO` [H2O2]: the “HIF-1α accumulation induced by oxidant” value with HIF-1α [4] was “induce HIF-1α accumulation”.
In the case of `CC(C)C[C@@H](C=O)NC(=O)[C@H](CC(C)C)NC(=O)[C@H](CC(C)C)NC(=O)OCc1ccccc1` [MG132] (Cbz-Leu-Leu-Leu-aldehyde), in the experiment with HIF-1α [5], the “hydroxyproline (Pro564) in induced HIF-1α” value is “hydroxyproline was detected”.
For the compound `NCCN(CCN)[N+]([O-])=NO` [NO], the “HIF-1α decay after washing of NO treated cells” value in the experiment with HIF-1α [2] (extensive washing with MEM) is recorded as “sluggish HIF-1α decay”. The “HIF-1α accumulation induced by oxidant” value in the experiment on HIF-1α [4] is recorded as “induce HIF-1α accumulation”.
On to `O=C(O)CCC(=O)O` [Succinate], for which the “displacement” value in the experiment with HPH was “not by succinate; also recorded: did not find a significant effect”. For the same compound, the “HIF-1α accumulation induced by metabolite” value in the experiment with HIF-1α [4] was “unable to induce HIF-1α accumulation”; in the experiment with HIF-1α [4] (listed as succinate) it was “did not find a significant effect”. Moreover, the “induction of HIF-1 regulated reporter gene (HRE-luciferase)” value with HIF-1 is on record as “did not find a significant effect”. In the experiment with ODD-GFP, the “stimulation of basal ODD-GFP accumulation” value is “not by succinate; also recorded: did not find a significant effect”.
Turning to `CC(=O)CC(=O)O` [acetoacetate], in the experiment on HIF-1α [4], the “HIF-1α accumulation induced by metabolite” value is “unable to induce HIF-1α accumulation”.
Turning to `C[C@H](N)C(=O)O` [alanine], the “HIF-1α accumulation induced by metabolite” value in the experiment with HIF-1α [4] was “unable to induce HIF-1α accumulation”.
Take `c1ccc(-c2ccccn2)nc1` [bipyridyl]: the intracellular calcein fluorescence result in experiment [1] is on record as “increase in fluorescence”.
`N[C@@H](CSSC[C@H](N)C(=O)O)C(=O)O` [cystine]: in the experiment on HIF-1α [4], the “inhibition of HIF-1α accumulation, L- vs D-isomers and dimer” value was “effective”.
Take `CCOC(=O)C(C)=O` [ethyl esters of pyruvate, ethyl-pyruvate]: the “HIF-1α accumulation induced by metabolite” value in the experiment on HIF-1α [4] is “effective”.
`O=C(O)C(=O)CF` [fluoropyruvate]: the “HIF-1α accumulation induced by metabolite” value in the experiment on HIF-1α [4] is given as “not able to induce HIF-1α accumulation”.
For the compound `O=C(O)/C=C/C(=O)O` [fumarate], in the experiment with HPH, the “displacement” value is “did not find a significant effect”. The “HIF-1α accumulation induced by metabolite” value in the experiment on HIF-1α [4] is given as “unable to induce HIF-1α accumulation; also recorded: did not find a significant effect”. The “induction of HIF-1 regulated reporter gene (HRE-luciferase)” value in the experiment with HIF-1 was “did not find a significant effect”. Besides, in the experiment on ODD-GFP, the “stimulation of basal ODD-GFP accumulation” value is “did not find a significant effect”.
`NC(=O)CC[C@H](N)C(=O)O` [glutamine]: the “basal HIF-1α accumulation” value in the experiment on HIF-1α [4] (U251 cells switched to Krebs buffer for 4 hours, 10 mM glutamine) is on record as “no basal HIF-1α accumulation”.
Regarding `O=C(O)C(=O)C(=O)O` [ketomalonate], in the experiment with HIF-1α [4], the “HIF-1α accumulation induced by metabolite” value is reported as “did not induce HIF-1α accumulation”.
With `O=C(O)CC(O)C(=O)O` (centres unmarked) [malate], the “HIF-1α accumulation induced by metabolite” value in the experiment with HIF-1α [4] is reported as “unable to induce HIF-1α accumulation”.
Take `O=C(O)CC(=O)C(=O)O` [oxaloacetate]: in the experiment on HIF-1α [4], the “dose inducing HIF-1α (doses as low as)” value is 100 µM and the “threshold dose for inducing HIF-1α accumulation” value was “about 300 μM”.
On to `CC(=O)C=O` [pyruvaldehyde], for which the “HIF-1α accumulation induced by metabolite” value with HIF-1α [4] is “unable to induce HIF-1α accumulation”.
For the compound `CC(=O)C(=O)O` [pyruvate], in the experiment on HIF-1α [4], the “dose inducing HIF-1α (doses as low as)” value came out at 100 µM and the “threshold dose for inducing HIF-1α accumulation” value is “about 300 μM”.
`CC[C@H](C)C(=O)C(=O)O` [α-keto-β-methylvalerate]: in the experiment on HIF-1α [4], the “HIF-1α accumulation induced by metabolite” value was “active in some but not all cell lines”.
Same read-out and setting: the entry for `O=C(O)CCCC(=O)C(=O)O` [α-ketoadipate] is “did not induce HIF-1α accumulation”; for `CCC(=O)C(=O)O` [α-ketobutyrate] it is “did not induce HIF-1α accumulation”.
For `CC(C)CC(=O)C(=O)O` [α-ketoisocaproate], the “HIF-1α accumulation induced by metabolite” value with HIF-1α [4] is listed as “active in some but not all cell lines”.
As to `CC(C)C(=O)C(=O)O` [α-ketoisovalerate], the “HIF-1α accumulation induced by metabolite” value in the experiment on HIF-1α [4] is “minor activity”.
For `CC(O)CC(=O)O` (stereo not drawn) [β-hydroxybutyrate], in the experiment on HIF-1α [4], the “HIF-1α accumulation induced by metabolite” value was “unable to induce HIF-1α accumulation”.

The values are drawn from patent US20080045463A1, “Methods For Lowering Hif-1 Mediated Gene Expression” (priority 2004, published 2008).
